Data from patent US11331299B2, “Medicinal use of serrulatane diterpenes” (The University of Sydney, priority 2016, dated 2022).
Where two headings read alike, the source gives them in different places.

System: 280 human cancer cell lines
Assay: OncoPanel cell proliferation assay (10-day)
Type: cell-based
Details: Homo sapiens; for EC50: read-out: Cell Count EC50; for IC50: read-out: Cell Count IC50
[1] = SW872, SW872, Soft Tissue - Sarcoma
[2] = SW 954, SW954, Female GU - Vulva
[3] = SW982, SW982, Soft Tissue - Sarcoma
[4] = SW1353, SW1353, Soft Tissue - Osteosarcoma
[5] = TE 125.T, Soft Tissue - Sarcoma
[6] = TE 381.T, Soft Tissue - Sarcoma
[7] = U2OS, Soft Tissue - Osteosarcoma
[8] = U-118-MG, U-118 MG, CNS - Glioma
[9] = VA-ES-BJ, Soft Tissue - Sarcoma
[10] = WM 266-4, WM-266-4, Skin (Melanoma)
[11] = NCI-H295R, Endocrine - Adrenal gland

`CC(C)=CCC[C@H](CO)[C@@H]1CC[C@@H](C)c2c1cc(C)c(O)c2O` [Compound 1, 7,8,18-trihydroxyserrulat-14-ene] was tested, and the EC50 [1] was 0.96 µM, the GI50 (SW872, SW872, Soft Tissue - Sarcoma, read-out: Cell Count GI50) was 0.96 µM and the IC50 [1] was 0.96 µM. For the same compound, the EC50 (SW900, SW900, Lung - SCLC) was 3.29 µM, the GI50 (SW900, SW900, Lung - SCLC, read-out: Cell Count GI50) was 3.24 µM and the IC50 (SW900, SW900, Lung - SCLC) was 3.33 µM. It also gave an EC50 (SW948, SW948, Colon) of 2.21 µM, a GI50 (SW948, SW948, Colon, read-out: Cell Count GI50) of 2.2 µM and an IC50 (SW948, SW948, Colon) of 2.21 µM. For the same compound, the EC50 [2] was 7.63 µM, the GI50 (SW 954, SW954, Female GU - Vulva, read-out: Cell Count GI50) was 7.6 µM and the IC50 [2] was 7.63 µM. For the same compound, the EC50 [3] was 1.07 µM, the GI50 (SW982, SW982, Soft Tissue - Sarcoma, read-out: Cell Count GI50) was 1.07 µM and the IC50 [3] was 1.07 µM. The EC50 (SW1088, SW1088, CNS - Glioma) was 2.44 µM, the GI50 (SW1088, SW1088, CNS - Glioma, read-out: Cell Count GI50) was 2.43 µM and the IC50 (SW1088, SW1088, CNS - Glioma) was 2.44 µM. For the same compound, the EC50 [4] was 1 µM, the GI50 (SW1353, SW1353, Soft Tissue - Osteosarcoma, read-out: Cell Count GI50) was 0.99 µM and the IC50 [4] was 1 µM. It also gave an EC50 (SW1417, SW1417, Colon) of 3.15 µM, a GI50 (SW1417, SW1417, Colon, read-out: Cell Count GI50) of 3.07 µM and an IC50 (SW1417, SW1417, Colon) of 3.15 µM. The EC50 (SW1463, SW1463, Colon) was 3.73 µM, the GI50 (SW1463, SW1463, Colon, read-out: Cell Count GI50) was 3.71 µM and the IC50 (SW1463, SW1463, Colon) was 3.75 µM. The EC50 (SW1783, SW1783, CNS - Glioma) was 3.19 µM, the GI50 (SW1783, SW1783, CNS - Glioma, read-out: Cell Count GI50) was 3.09 µM and the IC50 (SW1783, SW1783, CNS - Glioma) was 3.19 µM. The EC50 (SW-403, SW403, Colon) was 8.09 µM, the GI50 (SW-403, SW403, Colon, read-out: Cell Count GI50) was 7.89 µM and the IC50 (SW-403, SW403, Colon) was 8.11 µM. It also gave an EC50 (SW-620, SW620, Colon) of 1.48 µM, a GI50 (SW-620, SW620, Colon, read-out: Cell Count GI50) of 1.48 µM and an IC50 (SW-620, SW620, Colon) of 1.48 µM. It also gave an EC50 (SiHa, Female GU - Cervix) of 5.22 µM, a GI50 (SiHa, Female GU - Cervix, read-out: Cell Count GI50) of 5.17 µM and an IC50 (SiHa, Female GU - Cervix) of 5.23 µM. It also gave an EC50 (T24, Bladder) of 1.44 µM, a GI50 (T24, Bladder, read-out: Cell Count GI50) of 1.44 µM and an IC50 (T24, Bladder) of 1.44 µM. The GI50 (T47D, Breast, read-out: Cell Count GI50) was 4.28 µM, the GI50 (T98G, CNS - Glioma, read-out: Cell Count GI50) was 2.05 µM and the EC50 (TCC-SUP, TCCSUP, Bladder) was 1.75 µM. The GI50 (TCC-SUP, TCCSUP, Bladder, read-out: Cell Count GI50) was 1.72 µM, the IC50 (TCC-SUP, TCCSUP, Bladder) was 1.75 µM and the EC50 [5] was 6.47 µM. The GI50 (TE 125.T, Soft Tissue - Sarcoma, read-out: Cell Count GI50) was 1.48 µM, the IC50 [5] was 9.21 µM and the EC50 [6] was 1.62 µM. The GI50 (TE 381.T, Soft Tissue - Sarcoma, read-out: Cell Count GI50) was 1.59 µM, the IC50 [6] was 1.62 µM and the EC50 (TF-1, Leukemia) was 2.11 µM. It also gave a GI50 (TF-1, Leukemia, read-out: Cell Count GI50) of 1.98 µM, an IC50 (TF-1, Leukemia) of 2.11 µM and an EC50 (THP-1, Thp1, Leukemia) of 1.38 µM. For the same compound, the GI50 (THP-1, Thp1, Leukemia, read-out: Cell Count GI50) was 1.34 µM, the IC50 (THP-1, Thp1, Leukemia) was 1.38 µM and the EC50 (TUR, Lymphoma) was 5.09 µM. For the same compound, the GI50 (TUR, Lymphoma, read-out: Cell Count GI50) was 5.08 µM, the IC50 (TUR, Lymphoma) was 5.09 µM and the EC50 [7] was 1.66 µM. For the same compound, the GI50 (U2OS, Soft Tissue - Osteosarcoma, read-out: Cell Count GI50) was 1.65 µM, the IC50 [7] was 1.66 µM and the EC50 (U138-MG, U-138MG, CNS - Glioma) was 6.29 µM. For the same compound, the GI50 (U138-MG, U-138MG, CNS - Glioma, read-out: Cell Count GI50) was 6.15 µM, the IC50 (U138-MG, U-138MG, CNS - Glioma) was 6.33 µM and the EC50 (U266B1, Myeloma) was 3.22 µM. The GI50 (U266B1, Myeloma, read-out: Cell Count GI50) was 3.08 µM, the IC50 (U266B1, Myeloma) was 3.22 µM and the EC50 (U-87 MG, CNS - Glioma) was 2.12 µM. For the same compound, the GI50 (U-87 MG, CNS - Glioma, read-out: Cell Count GI50) was 2.04 µM, the IC50 (U-87 MG, CNS - Glioma) was 2.12 µM and the EC50 [8] was 4.56 µM. It also gave a GI50 (U-118-MG, U-118 MG, CNS - Glioma, read-out: Cell Count GI50) of 4.49 µM, an IC50 [8] of 4.58 µM and an EC50 (UMUC3, UM-UC-3, Bladder) of 1.85 µM. For the same compound, the GI50 (UMUC3, UM-UC-3, Bladder, read-out: Cell Count GI50) was 1.84 µM, the IC50 (UMUC3, UM-UC-3, Bladder) was 1.85 µM and the EC50 [9] was 3.67 µM. For the same compound, the GI50 (VA-ES-BJ, Soft Tissue - Sarcoma, read-out: Cell Count GI50) was 3.55 µM, the IC50 [9] was 3.67 µM and the EC50 [10] was 1.15 µM. For the same compound, the GI50 (WM 266-4, WM-266-4, Skin (Melanoma), read-out: Cell Count GI50) was 1.14 µM, the IC50 [10] was 1.15 µM and the EC50 (WiDr, Colon) was 2.32 µM. The GI50 (WiDr, Colon, read-out: Cell Count GI50) was 2.31 µM, the IC50 (WiDr, Colon) was 2.32 µM and the EC50 (Y79, Eye) was 5.6 µM. The GI50 (Y79, Eye, read-out: Cell Count GI50) was 5.33 µM, the IC50 (Y79, Eye) was 5.6 µM and the EC50 (YAPC, Pancreas) was 1.91 µM. The GI50 (YAPC, Pancreas, read-out: Cell Count GI50) was 1.9 µM, the IC50 (YAPC, Pancreas) was 1.91 µM and the EC50 [11] was 14.7 µM. For the same compound, the IC50 [11] was 14.7 µM, the EC50 (T47D, Breast) was 4.63 µM and the IC50 (T47D, Breast) was 4.63 µM. It also gave an EC50 (T98G, CNS - Glioma) of 2.05 µM, an IC50 (T98G, CNS - Glioma) of 2.05 µM and a GI50 (read-out: GI50) of 0.4 to 1 µM.
